Source: US20070105780A1, “Therapeutic agent for iNOS generating illness” (priority 2005, published 2007)
“Also recorded” adds a separate entry of the source. Where a SMILES comes first, the peptide text is derived from it. [ ]: non-standard residue; d: D form. The star is where a group is joined. Sta = CC(C)C[C@H](N)[C@@H](O)CC(=O)O; Isovaleryl = CC(C)CC(=O)*; Nle = CCCC[C@H](N)C(=O)O

B1: soybean trypsin inhibitor: protease inhibitor (protein, UniProt P01070 25-205, looked up)
Trypsin inhibitor A: DFVLDNEGNPLENGGTYYILSDITAFGGIRAAPTGNERCPLTVVQSRNELDKGIGTIISSPYRIRFIAEGHPLSLKFDSFAVIMLCVGIPTEWSVVEDLPEGPAVKIGENKDAMDGWFRLERVSDDEFNNYKLVFCPQQAEDDKCGDIGISIDHDDGTRRLVVSKNKPLVVQFQKLDKESL

Experiments:
[1] = tested on: proteolytic cleavage of iNOS in induced DLD-1-5B2 cells; assay: Inhibition of the cleavage of iNOS in situ in induced DLD-1-5B2 cells (Western blot of particulate fraction); format: cell-based, human; conditions: nine hours; for fragmentation (proteolytic cleavage) of iNOS in situ: 24-well plates, 20 μg/well, inhibitor added three hours after start of induction, Western blot FIG. 8; for fragmentation (proteolytic cleavage) of iNOS in situ, larger scale production: T-75 flasks, inhibitor added 3 hours after induction, Western blot FIG. 9
Experimental: DLD-1-5B2 cells, two days past confluence, were induced to express human iNOS using a mixture of recombinant human gamma interferon (rhIFNγ) at 8.33 ng/ml, recombinant human tumor necrosis factor-alpha (rhTNFα) at 3.3 ng/ml, and recombinant human interleukin-1β (rhIL-1β) at 3.3 ng/ml for 12-18 hours before being washed and harvested with trypsin/EDTA. The induced cells were washed three times with sterile PBS, transferred into sterile tubes in a small volume of sterile PBS, and stored frozen at −20° C. until processed for the isolation and fractionation of iNOS.
The frozen, induced DLD-1-5B2 cells were thawed in an ice water bath and lysed by two rapid freeze/thaw cycles using dry ice. The iNOS produced by the induced DLD-1-5B2 cells was then fractionated into a supernatant (soluble) fraction and a particulate fraction. The lysed cells were centrifuged at 16,000×g at 4° C. for 30 minutes to pellet the particulate fraction. The supernatant fraction that contained the soluble iNOS was transferred and stored at −20° C. or used fresh. The pellets were washed once, resuspended in a small volume of ice cold sterile PBS, and the resulting particulate fraction of iNOS was stored at −20° C. or used fresh.
The ability of six specific protease inhibitors to inhibit the cleavage of iNOS in situ was investigated using induced DLD-1-5B2 cells cultured in 24-well plates. Briefly, DLD-1-5B2 cells were cultured in 24-well plates instead of T-75 flasks, as described previously. Two days past confluence, the cells were induced with the same mixture of cytokines, but after three hours, the induction medium was removed from each well, the cells washed with pre-warmed sterile saline, and the medium replaced either with fresh DMEM, or with DMEM containing one of the six protease inhibitors being tested. Each inhibitor was assayed in triplicate at 20 μg/well. Nine hours later (12 hours after the start of the induction) the medium containing the inhibitors was removed, the cells were washed three times with ice-cold PBS, and the 24-well plates were placed on sheets of ice for 10 minutes to loosen the cells from the bottom of the plastic wells. The cells were blown off each well individually using a mechanical pipettor, sterile pipet tips, and ice-cold, sterile PBS. The cells were transferred to individual microfuge tubes on ice, collected by centrifugation, and washed twice with sterile, ice-cold PBS. No trypsin or other protease or EDTA was used during the harvesting or processing of the induced cells. The cells were lysed by 2 freeze/thaw cycles using dry ice and processed as previously described to isolate a supernatant fraction and a particulate fraction by centrifugation at 16,000×g. Both fractions were assayed in duplicate using the chemiluminescent EIA taught in U.S. patent application Ser. No. 09/628,585, and pools of the triplicate samples obtained for each protease inhibitor were analyzed by western blot. No statistically significant difference was found in the amount of iNOS contained in any of the supernatant fractions when compared to other supernatant fractions. Likewise, no statistically significant difference was found in the amount of iNOS contained in any of the particulate fractions when compared to other particulate fractions as measured by the EIA. Further, the distribution of iNOS between the supernatant and particulate fractions was similar for all the samples: the percent of the total iNOS in the supernatant fraction ranged from 55% to 65% and the percent of the total iNOS in the particulate fraction ranged from 35% to 45%. However, as is shown in FIG. 8, a difference in the form of the iNOS was found in the particulate fractions obtained from two of the protease inhibitors.
The quantity of particulate fraction produced was scaled up in T-75 culture flasks for both of these protease inhibitors in order to make enough material to be tested for their individual lethality in our mouse model of sepsis. […]

mouse model of sepsis = assay: Lethality of particulate fractions produced in presence of protease inhibitors, mouse model of sepsis; format: in vivo; conditions: LPS primed mice, N=10 per group; E-64 vs no inhibitor P<0.0002, vs SBTI P<0.002
Experimental: It was reasoned that the conversion of soluble iNOS to particulate iNOS, and thereby to lethal iNOS, might be the result of the proteolytic cleavage of the intact protein molecule. It was hypothesized that decreasing the cleavage process might be beneficial to septic patients since the lethal form of iNOS would be reduced or eliminated. This hypothesis was tested using various protease inhibitors. The loss of lethality produced by specific protease inhibitors was assessed by testing the lethal effects exerted by the administration of the particulate iNOS produced in the presence and absence of protease inhibitors to LPS primed mice.
The three particulate fractions prepared in Example IX were tested for their lethality on groups of mice (5 female and 5 male mice per group, N=10) using our mouse model of sepsis. […] It is believed that treatment of septic patients with a protease inhibitor that decreases or stops the cleavage of iNOS in vivo could serve as an effective therapy for SIRS, sepsis, severe sepsis and septic shock.

calpain = target: T1, calpain (Mus musculus, UniProt O35350); conditions: supernatant fraction of dexamethasone treated, induced cell lysate; cited from earlier work
T1 construct: enzymatic activity of calpain in the supernatant fraction of the dexamethasone treated, induced cell lysate
T1 sequence (O35350 1-713): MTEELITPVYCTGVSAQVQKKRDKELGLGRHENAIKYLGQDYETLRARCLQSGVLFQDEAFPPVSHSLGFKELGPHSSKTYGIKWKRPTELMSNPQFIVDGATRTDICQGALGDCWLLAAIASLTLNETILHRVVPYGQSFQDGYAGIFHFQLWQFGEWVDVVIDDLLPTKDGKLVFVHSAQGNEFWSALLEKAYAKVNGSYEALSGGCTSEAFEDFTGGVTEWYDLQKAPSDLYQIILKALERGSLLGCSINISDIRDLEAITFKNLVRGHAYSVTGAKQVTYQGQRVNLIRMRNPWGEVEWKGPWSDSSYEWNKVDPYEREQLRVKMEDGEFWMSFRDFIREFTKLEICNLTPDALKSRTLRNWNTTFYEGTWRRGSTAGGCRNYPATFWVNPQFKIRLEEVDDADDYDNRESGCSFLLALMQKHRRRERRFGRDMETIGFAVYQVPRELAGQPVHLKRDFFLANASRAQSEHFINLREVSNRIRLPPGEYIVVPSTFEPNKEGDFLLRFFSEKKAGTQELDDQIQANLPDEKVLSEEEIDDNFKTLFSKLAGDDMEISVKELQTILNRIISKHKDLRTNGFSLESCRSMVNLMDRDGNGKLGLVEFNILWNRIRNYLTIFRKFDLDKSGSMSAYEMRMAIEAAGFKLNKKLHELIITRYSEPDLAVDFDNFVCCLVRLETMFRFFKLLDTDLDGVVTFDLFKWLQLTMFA
T1 sequence (O88456 1-268 partner): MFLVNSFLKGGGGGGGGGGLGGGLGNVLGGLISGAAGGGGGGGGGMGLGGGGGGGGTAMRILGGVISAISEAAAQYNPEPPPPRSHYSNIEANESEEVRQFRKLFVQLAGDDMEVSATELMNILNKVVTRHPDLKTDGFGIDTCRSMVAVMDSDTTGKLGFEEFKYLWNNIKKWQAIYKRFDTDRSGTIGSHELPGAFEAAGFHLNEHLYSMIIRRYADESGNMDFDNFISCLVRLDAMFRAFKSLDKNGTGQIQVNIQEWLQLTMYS

Molecule | fragmentation (proteolytic cleavage) of iNOS in situ [1] | lethality of the particulate iNOS fraction isolated from cells induced in the presence of the inhibitor (mouse model of sepsis) | fragmentation (proteolytic cleavage) of iNOS in situ, larger scale production [1] | cleavage of recombinant iNOS protein by calpain (calpain) | fragmentation (proteolytic cleavage) of iNOS in situ ([1]; listed as leupeptin)
CC(C)CC(=O)N[C@H](C(=O)N[C@H](C(=O)N[C@@H](CC(C)C)[C@@H](O)CC(=O)N[C@@H](C)C(=O)N[C@@H](CC(C)C)[C@@H](O)CC(=O)O)C(C)C)C(C)C [pepstatin-A] (Isovaleryl-VV[Sta]A[Sta]-OH) | did not stop (inhibit) this cleavage process | had no effect on the lethality of the particulate iNOS fraction |  |  | 
CC(C)C[C@H](NC(=O)[C@H]1O[C@@H]1C(=O)O)C(=O)NCCCCN=C(N)N [E-64] | inhibited the proteolytic cleavage of the intact iNOS protein; also recorded: stopped (inhibited) the fragmentation of iNOS in situ | decrease the lethality of the particulate iNOS fraction; also recorded: statistically significant decrease in lethality | inhibiting the proteolytic cleavage of intact iNOS protein; also recorded: inhibit the fragmentation of iNOS in situ | inhibit such cleavage | 
aprotinin | did not stop (inhibit) this cleavage process |  |  |  | 
CCCC[C@@H](C=O)NC(=O)[C@H](CC(C)C)NC(=O)[C@H](CC(C)C)NC(C)=O [Ac-Leu-Leu-NLeu-al] (Ac-Leu-Leu-[Nle]-aldehyde) |  |  |  | inhibit such cleavage | 
CC(=O)N[C@@H](CC(C)C)C(=O)N[C@@H](CC(C)C)C(=O)N[C@H](C=O)CCCNC(=N)N [Leupeptin, leupeptin] | stopped (inhibited) the fragmentation of iNOS in situ | decrease the lethality of the particulate iNOS fraction |  | inhibit such cleavage | inhibited the proteolytic cleavage of the intact iNOS protein
α1-protease inhibitor: protease inhibitor | did not stop (inhibit) this cleavage process | had no effect on the lethality of the particulate iNOS fraction |  |  | 
B1 | did not stop (inhibit) this cleavage process | had no effect on the lethality of the particulate iNOS fraction | inability of soybean trypsin inhibitor (lane 2) to inhibit this cleavage process |  | 
